In US20220098228A1, “METHODS AND COMPOSITIONS FOR IMPROVING THE IMMUNE SYSTEM AND PROVIDING IMMUNO-PROTECTION” (Natreon, Inc., priority 2020, published 2022):
Marks after values point to notes of the source that are not given here.

Experiments:
peritoneal macrophages [1] = assay: NBT reduction assay in peritoneal macrophages, cyclophosphamide-induced immunosuppression (Example II); format: in vivo, Swiss albino mice; settings: for OD (515 nm), NBT reduction assay in peritoneal macrophages: 10 mg/kg body weight p.o. 7 days + cyclophosphamide 250 mg/kg i.p., Mean ± SD, n = 6; for improvement in NBT reduction capacity: 10 mg/kg body weight p.o., in comparison with cyclophosphamide treated mice
Method: (§1) The mice were acclimatized for one week in the laboratory conditions, before being used in the experiment. All experiments were conducted between 10.00 hr and 14.00 hr. Principles of laboratory animal care (NIH publication no. 85-23, revised 1985) were followed.
(§2) All test compounds (DBPs and DBP glycosides) were suspended in 0.3% of CMC (Carboxymethyl Cellulose) solutions of distilled water and were administered orally for 7 days by using an intubation canula. The volume of dose was 100 μl/10 g body weight. Cyclophosphamide was dissolved in distilled water and was injected (250 mg/kg, i.p.) on day one and volume of dose was 100 μl/10 g body weight. Control animals received equivalent volume of the vehicles CMC (0.3%) solutions only.
On day seven all the animals were sacrificed under ether anesthesia and peritoneal macrophages were lavaged using ice cold phosphate buffer saline (PBS: 0.15M NaCl pH-7.4). After centrifugation (3000 rpm×10 min) at 4° C. the pellet was re-suspended in PBS and cell viability was confirmed by trypan blue exclusion method. (Bala A, Haldar P K, Kar B, Naskar S and Mazumder U K, “Carbon tetrachloride: A hepatotoxin causes oxidative stress in murine peritoneal macrophage and peripheral blood lymphocyte cells” Immunopharmacol. and Immunotoxicol. 34(1): 157-162 (2012)).
Preparation of NBT solution: 0.2% NBT (nitroblue tetrazolium) in PB (Phosphate Buffer, pH 7.4), 5% dextrose and HBSS (Hank's balanced salt solution). The three solutions were mixed in 6:2:4 ratios. (Saxena A K, Singh K P, Srivastava S N, Shukla L J and Shanker R., “Immunomodulating effects of caffeine in rodents” Ind J Exptl Biol. 22: 298-301 (1984)).
Method: 0.5 ml of NBT solution was added to 0.5 ml of peritoneal macrophages (1×10^6 cells/ml) in a micro-centrifuge tube. This mixture was incubated at 37° C. for 45 minutes. The cell suspension was centrifuged at 1500 rpm for 10 minutes. Supernatant was discarded and pellet was re-suspended in 2 ml of DMSO. The tubes were kept in a boiling water bath for 10 minutes. The tubes were again centrifuged at 1500 rpm for 10 minutes. The supernatant was collected, and absorbance was measured at 515 nm.

splenocytes [2] = assay: Cell viability of splenocytes, trypan blue exclusion, cyclophosphamide-induced immunosuppression (Example II); format: in vivo, Swiss albino mice; settings: for % Cell Viability of splenocytes: 10 mg/kg body weight p.o. 7 days + cyclophosphamide 250 mg/kg i.p., Mean ± SD, n = 6
Method: as §1, §2
Spleen was collected. Single cell suspension was prepared by mincing and tapping the spleen fragments on stainless steel 200-mesh in ice cold phosphate buffer saline (PBS: 0.15M NaCl pH 7.4). Cell suspension was centrifuged at 2000 rpm for 10 minutes. The pellet was re-suspended in PBS and cell viability was confirmed by trypan blue exclusion method.

peritoneal macrophages [3] = assay: Peritoneal macrophage viability, trypan blue exclusion (Example III); format: in vivo, Swiss albino mice
Method: (§3) Male and female Swiss albino mice (n=8; 4 from each gender) weighing approximately 25±5 g, were obtained from National Research Institute of Ayurveda for Drug Development (Govt. of India), Kolkata, and were housed in polypropylene cages at 22±3° C., relative air humidity of 45 to 55%, with 12.00 h light & dark cycle (lighting on from 6:00 AM to 6:00 PM). […] The mice were acclimatized for one week in the laboratory conditions, before being used in the experiment. All experiments were conducted between 10.00 h and 14.00 h. Principles of laboratory animal care (NIH publication no. 85-23, revised 1985) was followed.
(§4) Cyclophosphamide was dissolved in distilled water and the mice were administered a single exposure (250 mg/kg, i.p.) on day 1.
(§5) 3-OH-DBP, 3,8-(OH)2-DBP, and combined 3-OH-DBP+3,8-(OH)2-DBP were administered once daily for 7 days starting from day 1. Following 7 days of treatment the mice were anaesthetized and sacrificed under anaesthesia followed by collection of peritoneal macrophages and spleen (for splenocyte isolation).
(§6) Swiss albino mice were randomly divided into 8 Groups (n=8; 4 from each gender). […] (2:10) (12 mg/kg b.w., p.o.), Group VI mice were administered 3-OH-DBP (10 mg/kg b.w., p.o.), Group VII mice were administered 3,8-(OH)2-DBP (50 mg/kg b.w., p.o.), Group VIII mice were administered [3-OH-DBP+3,8-(OH)2-DBP] (10:50) (60 mg/kg b.w., p.o.).
(§7) All the animals were sacrificed under ether anesthesia and peritoneal macrophages were lavaged using ice cold phosphate buffer saline (PBS: 0.15 M NaCl; pH: 7.4). After centrifugation (3000 rpm×10 min) at 4° C., pellets were re-suspended in PBS and cell viability was confirmed by trypan blue exclusion assay.
(§8) Results were expressed in terms of mean±SEM (n=8; 4 from each gender). Data were subjected to one way ANOVA followed by Tukey's test using GraphPad Prism 4.0 software to establish statistical significance (*p<0.05, **p<0.01, ***p<0.001, where * refers to comparison with Group I vehicle control; #p<0.05, ##p<0.01, ###p<0.001, where #refers to comparison with Group II cyclophosphamide administration; ^ap<0.05, ^aap<0.01, ^aap<0.01, where a refers to comparison of Day 7 with Day 0).

peritoneal macrophages [4] = assay: NBT reduction of peritoneal macrophages (Example III); format: in vivo, Swiss albino mice; settings: for NBT reduction compared with cyclophosphamide treated mice: 3,8-(OH)2-DBP 50 mg/kg, combined 12 and 60 mg/kg; for NBT reduction compared with vehicle control: cyclophosphamide, 3-OH-DBP 2 and 10 mg/kg, combined 12 mg/kg
Method: as §3, §4, §5, §6, §7
Preparation of NBT solution: 0.2% NBT (nitroblue tetrazolium) in PBS (pH 7.4), 5% dextrose and HBSS. These three solutions were mixed in 6:2:4 ratios.
0.5 ml of NBT solution was added to 0.5 ml of peritoneal macrophages (1×10^6 cells/ml) in micro-centrifuge tube. This mixture was incubated at 37° C. for 2 hours. The cell suspension was centrifuged at 2000 rpm for 10 minutes. Supernatants were discarded and pellets were re-suspended in 1 ml of DMSO. The tubes were kept in boiling water bath for 10 minutes and then cooled and centrifuged at 2000 rpm for 10 minutes. The supernatants were collected and absorbance was measured at 515 nm.
as §8

[5] = mouse, in vivo
Method: as §3, §4, §5, §6, §8

splenocytes [6] = assay: Splenocyte viability, trypan blue exclusion (Example III); format: in vivo, Swiss albino mice; settings: for % Viability Day7, splenocyte viability: Day 7
Method: as §3, §4, §5, §6
Spleens were collected and single cell suspension was prepared by mincing and tapping the spleen fragments on stainless steel 200-mesh in ice cold phosphate buffer saline (PBS: 0.15M NaCl; pH: 7.4). Cell suspensions were centrifuged at 2000 rpm for 10 minutes.
as §8

Swiss albino mice = assay: Cyclophosphamide-induced immunosuppression in mice, overall conclusion (Example II); format: in vivo; settings: treatment for 7 days at 10 mg/kg body weight (p.o.)
Method: All experiments were conducted between 10.00 hr and 14.00 hr. […] Control animals received equivalent volume of the vehicles CMC (0.3%) solutions only.

[7] = female mice, 3-OH-DBP 2 and 10 mg/kg, 3,8-(OH)2-DBP 10 and 50 mg/kg, combined 12 and 60 mg/kg
[8] = female mice, 10 mg/kg p.o. + cyclophosphamide 250 mg/kg i.p.
[9] = female mice, 50 mg/kg p.o. + cyclophosphamide 250 mg/kg i.p.
[10] = male mice, 3-OH-DBP 10 mg/kg, 3,8-(OH)2-DBP 50 mg/kg, combined 60 mg/kg
[11] = male mice, 10 mg/kg p.o. + cyclophosphamide 250 mg/kg i.p.
[12] = male mice, 50 mg/kg p.o. + cyclophosphamide 250 mg/kg i.p.

In the case of `O=c1oc2cc(O)ccc2c2ccc(O)cc12` [3,8-(OH)2-DBP, 3,8-dihydroxy-dibenzo-alpha-pyrone], the “OD (515 nm), NBT reduction assay in peritoneal macrophages” value (from here on “OD (515 nm), NBT reduction assay”) (peritoneal macrophages [1]) was 0.144 ± 0.010^, the “% Cell Viability of splenocytes” value (splenocytes [2]) was 54.90 ± 5.01% and the “peritoneal macrophage viability compared with cyclophosphamide treated mice” value (peritoneal macrophages [3]; [7]) was “significantly (p<0.05, p<0.01) increased”. The “% Viability Day 7, peritoneal macrophage viability” value (peritoneal macrophages [3]; [8]) was 65.78 ± 2.38** %, the “% Viability Day 7, peritoneal macrophage viability” value (peritoneal macrophages [3]; [9]) was 75.27 ± 0.53^# % and the “peritoneal macrophage viability compared with cyclophosphamide treated mice” value (peritoneal macrophages [3]; [10]) was “significantly (p<0.05, p<0.01) increased”. For the same compound, the “% Viability Day 7, peritoneal macrophage viability” value (peritoneal macrophages [3]; [11]) was 60.34 ± 1.84%, the “% Viability Day 7, peritoneal macrophage viability” value (peritoneal macrophages [3]; [12]) was 70.91 ± 1.24# % and the “peritoneal macrophage viability compared with vehicle control” value (peritoneal macrophages [3]; male mice, cyclophosphamide, 3-OH-DBP 2 mg/kg, 3,8-(OH)2-DBP 10 mg/kg) was “significantly (p<0.05) decreased”. For the same compound, the “NBT reduction compared with cyclophosphamide treated mice” value (peritoneal macrophages [4]; female mice, 3-OH-DBP 10 mg/kg) was “significantly (p<0.05, p<0.01, p<0.001) increased”, the “O.D. (515 nm) Day 7, NBT reduction of peritoneal macrophages” value (peritoneal macrophages [4]; [8]) was 0.159 ± 0.02*** and the “O.D. (515 nm) Day 7, NBT reduction of peritoneal macrophages” value (peritoneal macrophages [4]; [9]) was 0.294 ± 0.008*,###. For the same compound, the “NBT reduction compared with vehicle control” value (peritoneal macrophages [4]; female mice, 3,8-(OH)2-DBP 10 and 50 mg/kg) was “significantly (p<0.05, p<0.01, p<0.001) decreased”, the “NBT reduction compared with cyclophosphamide treated mice” value (peritoneal macrophages [4]; male mice, NBT reduction capacity increased) was “significantly (p<0.05, p<0.01, p<0.001) reversed” and the “O.D (515 nm) Day 7, NBT reduction of peritoneal macrophages” value (peritoneal macrophages [4]; [11]) was 0.294 ± 0.04499***. The “O.D (515 nm) Day 7, NBT reduction of peritoneal macrophages” value (peritoneal macrophages [4]; [12]) was 0.476 ± 0.07172##, the “NBT reduction compared with vehicle control” value (peritoneal macrophages [4]; male mice, 3,8-(OH)2-DBP 10 mg/kg) was “significantly (p<0.01, p<0.001) decreased” and the “body weight Day 7 in comparison to Day 0” value [5] was “significantly (p<0.05) decreased”. The “feed intake Day 7 in comparison to Day 0” value [5] was “significantly (p<0.05, p<0.01) decreased”, the “feed intake compared to vehicle control” value [5] was “significantly (p<0.05, p<0.01) decreased” and the “water intake compared with cyclophosphamide treated mice” value [5] was “significantly (p<0.001) decreased”. The “water intake compared with vehicle control” value [5] was “significantly (p<0.001) decreased”, the “water intake compared with vehicle control and cyclophosphamide treated mice” value [5] was “significantly (p<0.05, p<0.001) decreased” and the “splenocyte viability compared with cyclophosphamide treated mice” value (splenocytes [6]; [7]) was “significantly (p<0.05, p<0.01, p<0.001) increased”. For the same compound, the “% Viability Day7, splenocyte viability” value (splenocytes [6]; [8]) was 89.50 ± 2.30# %, the “% Viability Day7, splenocyte viability” value (splenocytes [6]; [9]) was 90.87 ± 1.98## % and the “restoration of splenocyte viability” value (splenocytes [6]; male mice, 50 mg/kg 3,8-(OH)2-DBP (Group VII), 60 mg/kg DBP combination (Group VIII)) was “restored”. The “splenocyte viability compared with cyclophosphamide treated mice” value (splenocytes [6]; [10]) was “significantly higher”, the “% Viability Day7, splenocyte viability” value (splenocytes [6]; [11]) was 68.69 ± 2.21*** % and the “% Viability Day7, splenocyte viability” value (splenocytes [6]; [12]) was 90.14 ± 0.36## %. The “splenocyte viability compared with vehicle control” value (splenocytes [6]; male mice, cyclophosphamide, 2 mg/kg 3-OH-DBP, 10 mg/kg 3,8-(OH)2-DBP, 12 mg/kg combined) was “similarly decreased”.

In the case of `O=c1oc2cc(OC3OC(CO)C(O)C(O)C3O)ccc2c2ccc(OC3OC(CO)C(O)C(O)C3O)cc12` [3,8-(OH)2-DBP glycoside, 3,8-di-(O-D-Glucopyranosyl)-Dibenzo-alpha-pyrone], the “OD (515 nm), NBT reduction assay” value (peritoneal macrophages [1]) was 0.153 ± 0.013, the “improvement in NBT reduction capacity” value (peritoneal macrophages [1]) was “moderate (p<0.05) improvement” and the “% Cell Viability of splenocytes” value (splenocytes [2]) was 58.58 ± 4.49%. For the same compound, the “Cyclophosphamide-induced immunosuppression (conclusion)” value (Swiss albino mice) was “rescued”.

For `O=c1oc2cc(OC3OC(CO)C(O)C(O)C3O)ccc2c2ccccc12` [3-OH-DBP glycoside, 3-O-D-Glucopyranosyl-Dibenzo-alpha-pyrone], the “OD (515 nm), NBT reduction assay” value (peritoneal macrophages [1]) was 0.168 ± 0.014, the “improvement in NBT reduction capacity” value (peritoneal macrophages [1]) was “highest level of improvement” and the “% Cell Viability of splenocytes” value (splenocytes [2]) was 60.39 ± 5.85 %. The “improvement in splenocyte viability” value (splenocytes [2]; 10 mg/kg p.o. in cyclophosphamide-treated mice) was “significant improvement” and the “Cyclophosphamide-induced immunosuppression (conclusion)” value (Swiss albino mice) was “rescued”.
